Test results as given in ChEMBL document CHEMBL1154134, “Scalarane sesterterpenes from the sponge Smenospongia sp” (J Nat Prod, 2008).
pIC50: −log10 of the molar value. Converted amounts (≈) assume the structure as drawn.

Legend:
Isocitrate lyase = Isocitrate lyase (Magnaporthe oryzae (strain 70-15 / FGSC 8958) (Rice blast fungus)(Pyricularia oryzae), UniProt P0CT06); test: Inhibition of Magnaporthe grisea isocitrate lyase; set-up: species or system Pyricularia grisea
Staphylococcus aureus = test: Antibacterial activity against Staphylococcus aureus ATCC 65389 after 24 hrs by twofold dilution method; assay type: functional; conditions: ATCC 65389, 24 h
Bacillus subtilis = test: Antibacterial activity against Bacillus subtilis ATCC 6633 after 24 hrs by twofold dilution method; assay type: functional; conditions: ATCC 6633, 24 h
Micrococcus luteus = test: Antibacterial activity against Micrococcus luteus IFC 12708 after 24 hrs by twofold dilution method; assay type: functional; conditions: IFC 12708, 24 h
Proteus vulgaris = test: Antibacterial activity against Proteus vulgaris ATCC 3851 after 24 hrs by twofold dilution method; assay type: functional; conditions: ATCC 3851, 24 h
Salmonella typhimurium = test: Antibacterial activity against Salmonella Typhimurium ATCC 14028 after 24 hrs by two-fold dilution method; assay type: functional, Salmonella enterica subsp. enterica serovar Typhimurium; conditions: Salmonella enterica, ATCC 14028, 24 h
Escherichia coli = test: Antibacterial activity against Escherichia coli ATCC 25922 after 24 hrs by twofold dilution method; assay type: functional; conditions: ATCC 25922, 24 h
K562 = test: Cytotoxicity against human K562 cells after 48 hrs by SRB assay; assay type: functional; conditions: K562, 48 h, read-out: LC50 (the source's name)

Sequence of Isocitrate lyase (P0CT06 whole entry): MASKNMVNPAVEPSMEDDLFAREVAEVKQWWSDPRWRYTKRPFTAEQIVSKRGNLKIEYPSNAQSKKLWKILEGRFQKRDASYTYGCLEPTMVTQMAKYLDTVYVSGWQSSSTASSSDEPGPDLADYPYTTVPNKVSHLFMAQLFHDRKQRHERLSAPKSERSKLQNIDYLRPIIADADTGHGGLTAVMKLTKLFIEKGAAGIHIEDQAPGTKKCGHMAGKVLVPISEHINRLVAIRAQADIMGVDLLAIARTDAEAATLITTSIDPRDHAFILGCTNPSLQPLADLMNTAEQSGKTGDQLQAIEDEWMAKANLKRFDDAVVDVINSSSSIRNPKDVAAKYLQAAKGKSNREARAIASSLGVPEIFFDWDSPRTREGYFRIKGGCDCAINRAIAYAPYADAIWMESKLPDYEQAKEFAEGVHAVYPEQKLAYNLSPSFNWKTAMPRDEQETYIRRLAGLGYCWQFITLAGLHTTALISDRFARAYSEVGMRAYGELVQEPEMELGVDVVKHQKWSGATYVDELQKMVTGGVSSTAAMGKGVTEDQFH

Compound	pIC50 (Isocitrate lyase)	MIC (Staphylococcus aureus) [µg/mL]	MIC (Bacillus subtilis) [µg/mL]	MIC (Micrococcus luteus) [µg/mL]	MIC (Proteus vulgaris) [µg/mL]	MIC (Salmonella typhimurium) [µg/mL]	MIC (Escherichia coli) [µg/mL]	CC50 (K562) [µg/mL]
O=C(O)CC[N+](=O)[O-]	4.29							
CC1=C(O)/C(=C/[C@H](C)CCC/C(C)=C/CC/C(C)=C/CCc2ccoc2)OC1=O	4.17	12.5 (≈ 31.4 µM)	6.25 (≈ 15.7 µM)	6.25 (≈ 15.7 µM)	6.25 (≈ 15.7 µM)	6.25 (≈ 15.7 µM)	> 100	43.7 (≈ 110 µM)
C/C(=C\CC/C(C)=C/C[C@H](O)c1ccoc1)CC/C=C(\C)CC(=O)CC(C)C	< 3.59	> 100	6.25 (≈ 16.2 µM)	> 100	> 100	> 100	> 100	5.7 (≈ 14.7 µM)
CC(=O)O[C@@H]1OC=C2[C@H]1[C@@]1(C)CC[C@H]3[C@@](C)(CC[C@H]4C(C)(C)CCC[C@]34C)[C@@H]1C[C@@H]2O	< 3.63	> 100	3.12 (≈ 7.25 µM)	> 100	> 100	12.5 (≈ 29 µM)	> 100	5.8 (≈ 13.5 µM)
CC(=O)O[C@@H]1OC=C2[C@@H](OC(C)=O)C[C@@H]3[C@](C)(CC[C@H]4[C@@]3(C)CC[C@H]3C(C)(C)CCC[C@@]34C=O)[C@H]21	< 3.69	> 100	> 100	> 100	> 100	> 100	> 100	17.5 (≈ 36 µM)
COC(=O)C1=CC[C@@H]2[C@](C)(CC[C@H]3[C@@]2(C)CC[C@H]2C(C)(C)CCC[C@@]23COC(C)=O)[C@H]1C=O	3.92	25 (≈ 54.5 µM)	0.78 (≈ 1.7 µM)	12.5 (≈ 27.3 µM)	6.25 (≈ 13.6 µM)	12.5 (≈ 27.3 µM)	> 100	8.6 (≈ 18.8 µM)
COC(=O)C1=CC[C@@H]2[C@](C)(CC[C@H]3[C@@]2(C)CC[C@H]2C(C)(C)CCC[C@@]23COC(C)=O)[C@@H]1C=O	< 3.66	> 100	> 100	> 100	> 100	> 100	> 100	3.7 (≈ 8.07 µM)
CC(=O)O[C@@H]1OC(=O)C2=CC[C@@H]3[C@](C)(CC[C@H]4[C@@]3(C)CC[C@H]3C(C)(C)CCC[C@@]34CO)[C@H]21	< 3.65	> 100	1.56 (≈ 3.51 µM)	3.12 (≈ 7.02 µM)	> 100	6.25 (≈ 14.1 µM)	> 100	22.5 (≈ 50.6 µM)
CO[C@@H]1OCC2=CC[C@@H]3[C@](C)(CC[C@H]4[C@@]3(C)CC[C@H]3C(C)(C)CCC[C@@]34CO)[C@H]21	3.98	> 100	50 (≈ 124 µM)	> 100	> 100	6.25 (≈ 15.5 µM)	> 100	0.11 (≈ 0.273 µM)
CC(=O)O[C@@H]1OC=C2[C@@H](OC(C)=O)C[C@@H]3[C@](C)(CC[C@H]4[C@@]3(C)CC[C@H]3C(C)(C)CCC[C@@]34CO)[C@H]21	< 3.69	> 100	0.78 (≈ 1.6 µM)	100 (≈ 205 µM)	> 100	6.25 (≈ 12.8 µM)	> 100	0.13 (≈ 0.266 µM)
CC(=O)OC[C@]12CCCC(C)(C)[C@@H]1CC[C@@]1(C)[C@@H]3CC=C(C(=O)O)[C@@H](C=O)[C@@]3(C)CC[C@@H]12	< 3.65	> 100	> 100	> 100	100 (≈ 225 µM)	> 100	> 100	4.2 (≈ 9.45 µM)
CC1=C(O)/C(=C/[C@H](C)CC/C=C(/C)CCC/C=C(/C)CCc2ccoc2)OC1=O	4.11	6.25 (≈ 15.7 µM)	6.25 (≈ 15.7 µM)	3.12 (≈ 7.83 µM)	6.25 (≈ 15.7 µM)	12.5 (≈ 31.4 µM)	> 100	7.3 (≈ 18.3 µM)
CC1(C)CCC[C@@]2(CO)[C@H]1CC[C@]1(C)[C@@H]2CC[C@]2(C)c3cocc3CC[C@@H]12	3.91	> 100	1.56 (≈ 4.21 µM)	6.25 (≈ 16.9 µM)	> 100	12.5 (≈ 33.7 µM)	> 100	0.97 (≈ 2.62 µM)
CC(=O)OC[C@]12CCCC(C)(C)[C@@H]1CC[C@]1(C)[C@@H]2CC[C@]2(C)c3cocc3CC[C@@H]12	< 3.62	> 100	3.12 (≈ 7.56 µM)	25 (≈ 60.6 µM)	> 100	> 100	> 100	2.3 (≈ 5.57 µM)
CC(=O)OC[C@]12CCCC(C)(C)[C@@H]1CC[C@@]1(C)[C@@H]3C[C@H](OC(C)=O)C4=CO[C@@H](OC(C)=O)[C@@H]4[C@@]3(C)CC[C@@H]12	< 3.72	> 100	> 100	> 100	> 100	> 100	> 100	6.8 (≈ 12.8 µM)
CC1(C)S[C@@H]2[C@H](NC(=O)[C@H](N)c3ccccc3)C(=O)N2[C@H]1C(=O)O [AMPICILLIN]		1.56 (≈ 4.46 µM)	1.56 (≈ 4.46 µM)	1.56 (≈ 4.46 µM)	3.12 (≈ 8.93 µM)	3.12 (≈ 8.93 µM)	12.5 (≈ 35.8 µM)	
COc1cccc2c1C(=O)c1c(O)c3c(c(O)c1C2=O)C[C@@](O)(C(=O)CO)C[C@@H]3O[C@H]1C[C@H](N)[C@H](O)[C@H](C)O1 [DOXORUBICIN]								4.9 (≈ 9.02 µM)
